{"source": "patent US20080248568A1", "about": "“Directed Neural Differentiation” (The University Court of the University of Edinburgh, priority 2005, published 2008)", "key": {"ES cells": {"test_system": "ES cells", "test": "Toxic effects of inhibitors in ES cell monolayer differentiation cultures", "format": "cell-based, mouse", "conditions": "4 μM", "text": "(§1) This is as described in detail in Ying et al., 2003b. Briefly, ES cells were washed to remove all traces of serum and then plated on gelatin-coated tissue culture plastic at a density of 1>10^4 cells/cm^2 in N2B27 serum-free medium. N2B27 consists of a 1:1 ratio of DM/F12 and Neurobasal media supplemental with 0.5% N2 (made in house as described in (Ying et al., 2003b)), 0.5% B27 (Gibco) and 2-mercaptoethanol. Media was changed every second day.\n(§2) In some experiments, the culture medium was supplemented with 100 units/ml LIF and with 10% FCS. The MAPK inhibitor PD184352 (gift of P. Cohen, Univ Dundee) was used at a concentration of 4 μM. The gamma secretase inhibitor (Calbiochem cat. 565771) was used at a concentration of 4 μM."}, "NotchIC cells": {"test_system": "NotchIC cells", "test": "Monolayer differentiation of NotchIC ES cells, sox1-GFP by FACS", "format": "cell-based, mouse", "conditions": "4 μM inhibitor, sox1-GFP positive cells by FACS", "text": "Intact cultures were stained for Oct4 on day 5 to visualise undifferentiated ES cells.\nas §1, §2"}}, "data": [{"compound": "O=C(NOCC1CC1)c1ccc(F)c(F)c1Nc1ccc(I)cc1Cl", "note": "[PD184352]", "values": [{"measurement": "toxic effects over the time course of the experiments", "setting": "ES cells", "value": "Neither of these inhibitors had any obvious toxic effects"}, {"measurement": "induction of sox1 in NotchIC cells", "setting": "NotchIC cells", "value": "able to block induction of sox1"}]}, {"compound": "Cc1c[nH]c(/C=C2\\C(=O)Nc3ccccc32)c1CCC(=O)O", "note": "[SU5402]", "values": [{"measurement": "induction of sox1 in NotchIC cells", "setting": "NotchIC cells", "value": "able to block induction of sox1"}]}]}
